Test results as given in PMC12598851, “Exploiting Avidity Effects for the Discovery of Low Affinity Protein-Binding Fragments” (Journal of Medicinal Chemistry, 2025).
“And” between values parts separate entries of the source, which are not always exact repeats. Identical values can stand only once. “Also recorded” adds a separate entry of the source.

What was measured:
[1] = target: T1, tetrameric streptavidin (SA-647) (Streptomyces avidinii, UniProt P22629); test: Bead pull-down: SA-647 retained by compound-displaying TentaGel beads, plate reader; type: binding
T1 construct: purchased ThermoFisher S3235
Source text: Compounds 2 and 3 were then constructed on 10 μm TentaGel beads via straightforward solid-phase synthesis, along with acetylated beads, which as a “blank” (Figure c). TentaGel beads consist of an amino-polystyrene core onto which is grafted a thick layer of amine-terminated PEG chains. An additional mini-PEG spacer was incorporated prior to coupling the compounds to further improve spatial accessibility and aqueous display of the compounds (see Experimental Section for detailed synthesis). The beads were incubated with AlexaFluor 647-conjugated SA (SA-647) in phosphate-buffered saline supplemented with 0.05% Tween 20 (PBST) for 1 h at room temperature in the dark. Following incubation, the beads were washed thoroughly (see Experimental Section for a detailed protocol), then resuspended in PBST. The amount of fluorescent SA retained by the resin was analyzed using a Tecan multiwell plate reader equipped with appropriate excitation and emission filters (excitation at 650 nm, emission at 665 nm).
(§1) General notes: • At each step, contents were mixed by pipetting up and down 3–5 times. • All steps following the addition of SA-647 were conducted in the dark. • SA-647 and mSA-647 were purchased from commercial sources; (SA-647: ThermoFisher cat#S3235, mSA-647: Millipore SAE178).
A 96-well Multiscreen hydrophilic assay plate (MilliporeSigma, MSBVN12) was activated by treating each well with 150 μL of 70% (v/v) ethanol in water. The solvent was removed under vacuum, and the wells were washed with PBST (3 × 150 μL). Fresh PBST (150 μL) was then added to each well.
The plate was drained and washed again with PBST (3 × 150 μL), followed by the addition of 150 μL PBST per well. Plates were shaken overnight at ambient temperature on an orbital plate shaker.
The next day, wells were drained and incubated with 150 μL of a 1:1 (v/v) solution of PBST:PBS blocking buffer (Thermo Scientific, 37538) for 1 h at room temperature. After removal of the blocking buffer, 100 μL PBST was added to each well and mixed thoroughly. A 20 μL aliquot from each well was transferred to a black 384-well flat-bottom plate (Corning, 3820) for background (blank) measurements.
The remaining PBST was removed, and the beads were incubated with SA-647 (500 nM in 1:1 PBST/blocking buffer, 150 μL per well) for 1 h at room temperature. After incubation, wells were washed with PBST while shaking (3 × 20 min). A final 150 μL PBST wash was performed and drained. Fresh PBST (80 μL) was added to each well, and the contents were transferred to labeled PCR tubes. Samples were briefly vortexed and mixed by pipetting.
Each sample was transferred to a black 384-well plate in triplicate (3 × 20 μL per well). The plate was sealed with a foil sticker and centrifuged at 250g for 1 min. Fluorescence intensity was measured using a TECAN plate reader. Background fluorescence (from blank wells) was subtracted prior to further data analysis.

[2] = target: T2, biotin-binding surface of SA (Streptomyces avidinii, UniProt P22629); test: Competition assay with biotin on beads; conditions: SA-647 500 nM pretreated with biotin 10 μM, 30 min
T2 construct: purchased ThermoFisher S3235
Procedure: To determine if ligand 2 interacts with the biotin-binding surface of SA, we preincubated SA-647 with excess biotin and repeated the binding assay.
This assay was conducted following the exact same procedure described above using two samples: SA-647 (500 nM) alone, and SA-647 (500 nM) that had been pretreated with biotin (10 μM) for 30 min at room temperature. Each sample was added to separate wells of a microtiter plate.

[3] = system: monomeric streptavidin (mSA-647); test: Bead pull-down with monomeric streptavidin; type: binding; conditions: mSA-647 500 nM, 1 h, PBST, room temperature
Procedure: To investigate this, compound 2-displaying, compound 3-displaying, or blank (acetylated) beads were incubated with tetrameric SA-647 or iFluor647-conjugated monomeric streptavidin (mSA-647). Biotin-displaying beads (Figure S3) were also included in this experiment as a high-affinity comparator. […] No binding of either protein to compound 3-displaying beads was observed.
3 Stable binding of tetrameric SA to beads displaying compound 2 is highly dependent on avidity. […] Each compound was represented by 1 million 10 μm TentaGel beads, with 250,000 beads used per technical replicate. (b) Effect of ligand functionalization density on compound binding. Beads were functionalized with compound 2, compound 3, or biotin at varying surface densities (100% to 5%) and incubated with SA-647 (500 nM) for 1 h in PBST at room temperature as previously, before recording the fluorescence intensity.
as §1

For `CC(=O)N(Cc1cccnc1)Cc1nc(C(=O)N(C)CC(=O)NCCOCCOCC(=O)NCC(N)=O)cs1` [Compound 2], the “Fluorescence intensity, Average” value ([1]; SA-647 500 nM, 12 replicates, after background subtraction, Z' calculation) was 14647, the “binding of SA-647 to bead-displayed compound (fluorescence)” value ([1]; SA-647 500 nM, 1 h, PBST, room temperature, after washing) was “readily detectable; also recorded: strong binding” and the “Fluorescence intensity, individual replicate” value ([1]; SA-647 500 nM, replicates 1-12, after background subtraction, Z' calculation) was 15421 and 12975 and 13104 and 12492 and 14298 and 14769 and 15364 and 16337 and 17794 and 14546 and 14869 and 13797. The “fluorescence after 24 h in buffer lacking protein compared with directly after washing” value ([1]; beads washed, resuspended in PBST lacking protein for 24 h) was “almost identical”, the “retained SA-647 at 30% ligand density” value ([1]; compound linked to only 30% of the sites on the beads, SA-647 500 nM) was “almost undetectable above background” and the “dependence of SA-647 retention on ligand density” value ([1]; site functionalization 100% to 5%, SA-647 500 nM) was “strongly density-dependent”. For the same compound, the “retention of SA-647 preincubated with excess biotin” value [2] was “ablated retention” and the “binding of mSA-647 to bead-displayed ligand” value [3] was “did not retain detectable levels; also recorded: not observed”.
